The values that follow come from US10947252B2, “Inhibitors of KEAP1-Nrf2 protein-protein interaction” (Janssen Pharmaceutica NV, priority 2018, dated 2021).

The experiment has as its system Glo-Response ARE-luc2P HEK293 cell line. Briefly: ARE luciferase reporter cell-based assay.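 Also: luciferase signal tracks Nrf2 activation of the ARE once compounds disrupt KEAP1-Nrf2 binding, read with One-Glo reagent, DMSO serving as low control.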 The conditions noted are these: average of results obtained.

Where the note is “Homo sapiens, HEK293, 24 h”, `Cc1ccc([C@H](c2cc(OC(F)F)c3c(c2)nnn3C)C(C)(C)C(=O)O)cc1CN1CC2(CCOCC2)Oc2ncccc2S1(=O)=O` (single isomer, unassigned) [Example 427, (R*)-3-(7-(difluoromethoxy)-1-methyl-1H-benzo[d][1,2,3]triazol-5-yl)-3-(3-((1′,1′-dioxido-2,3,5,6-tetrahydrospiro[pyran-4,4′-pyrido[2,3-b][1,4,5]oxathiazepin]-2′(3′H)-yl)methyl)-4-methylphenyl)-2,2-dimethylpropanoic Acid] showed an EC50 of 293 nM. Still for that read-out and setting: the value for `Cc1ccc([C@@H](c2ccn3c(C(F)(F)F)nnc3c2C)C(C)C(=O)O)nc1CN1C[C@@H]2CCCCN2c2ncc(F)cc2S1(=O)=O` (relative stereo) [Example 507, (3*R)-3-(6-(((*S)-3-Fluoro-5,5-dioxido-7,7a,8,9,10,11-hexahydro-6H-dipyrido[2,1-d:2′,3′-f][1,2,5]thiadiazepin-6-yl)methyl)-5-methylpyridin-2-yl)-2-methyl-3-(8-methyl-3-(trifluoromethyl)-[1,2,4]triazolo[4,3-a]pyridin-7-yl)propanoic Acid] was 0.73 nM; that for `CCn1nnc2c(C)c(C(CC(=O)O)c3ccc(C)c(CN4C[C@H]5CCCCN5c5ncccc5S4(=O)=O)c3)ccc21` (mixture of isomers) [Example 144, (R/S)-3-(3-(((*R)-5,5-Dioxido-7,7a,8,9,10,11-hexahydro-6H-dipyrido[2,1-d:2′,3′-f][1,2,5]thiadiazepin-6-yl)methyl)-4-methylphenyl)-3-(1-ethyl-4-methyl-1H-benzo[d][1,2,3]triazol-5-yl)propanoic Acid] was 3.1 nM; that for `CCn1nnc2c(C)c(C(c3ccc(C)c(CN4CC5(CCOCC5)Oc5ncccc5S4(=O)=O)c3)C(C)(C)C(=O)O)ccc21` (stereo not shown) [Example 14, 3-(3-((1′,1′-Dioxido-2,3,5,6-tetrahydrospiro[pyran-4,4′-pyrido[2,3-b][1,4,5]oxathiazepin]-2′(3′H)-yl)methyl)-4-methylphenyl)-3-(1-ethyl-4-methyl-1H-benzo[d][1,2,3]triazol-5-yl)-2,2-dimethylpropanoic Acid] was 0.7 nM. On to `CCc1c([C@H](c2ccc(C)c(CN3C[C@@H]4CCCCN4c4ncc(C)cc4S3(=O)=O)c2)C(C)C(=O)O)ccn2c(C(F)(F)F)nnc12` (relative stereo) [Example 513, (3*S)-3-(8-Ethyl-3-(trifluoromethyl)-[1,2,4]triazolo[4,3-a]pyridin-7-yl)-2-methyl-3-(4-methyl-3-(((*S)-3-methyl-5,5-dioxido-7,7a,8,9,10,11-hexahydro-6H-dipyrido[2,1-d:2′,3′-f][1,2,5]thiadiazepin-6-yl)methyl)phenyl)propanoic Acid], for which the EC50 (Homo sapiens, HEK293, 24 h) was determined as 1.63 nM. Same read-out and setting: as for `CCc1c([C@@H](CC(=O)O)c2ccc(C)c(CN3C[C@@H]4CCCCN4c4ncc(C)cc4S3(=O)=O)c2)ccn2c(C(F)(F)F)nnc12` (relative stereo) [Example 517, (*S)-3-(8-Ethyl-3-(trifluoromethyl)-[1,2,4]triazolo[4,3-a]pyridin-7-yl)-3-(4-methyl-3-(((*S)-3-methyl-5,5-dioxido-7,7a,8,9,10,11-hexahydro-6H-dipyrido[2,1-d:2′,3′-f][1,2,5]thiadiazepin-6-yl)methyl)phenyl)propanoic Acid], the figure is 10.3 nM. For the setting “Homo sapiens, HEK293, 24 h”, `CCn1nnc2c(C)c(C(CC(=O)O)c3ccc(C)c(CN4CC(C)(C)Oc5ncccc5S4(=O)=O)c3)ccc21` (racemic) [Example 150, (R/S)-3-[3-[(4,4-Dimethyl-1,1-dioxo-3H-pyrido[2,3-b][1,4,5]oxathiazepin-2-yl)methyl]-4-methyl-phenyl]-3-(1-ethyl-4-methyl-benzotriazol-5-yl)propanoic Acid] returned an EC50 of 56 nM. Still for that read-out and setting: as for `Cc1ccc([C@H](CC(=O)O)c2ccn3c(C(F)(F)F)nnc3c2C)cc1CN1C[C@@H]2CCCCN2c2ccccc2S1(=O)=O` (relative stereo) [Example 299, (*S)-3-(3-(((*S)-5,5-Dioxido-7,7a,8,9,10,11-hexahydro-6H-benzo[f]pyrido[2,1-d][1,2,5]thiadiazepin-6-yl)methyl)-4-methylphenyl)-3-(8-methyl-3-(trifluoromethyl)-[1,2,4]triazolo[4,3-a]pyridin-7-yl)propanoic Acid], the figure is 11.4 nM; as for `Cc1ccc([C@H](CC(=O)O)c2ccn3c(C(F)F)nnc3c2C)cc1CN1C[C@H]2CCCCN2c2ncc(C#N)cc2S1(=O)=O` (relative stereo) [Example 32, (*S)-3-(3-(((*R)-3-Cyano-5,5-dioxido-7,7a,8,9,10,11-hexahydro-6H-dipyrido[2,1-d:2′,3′-f][1,2,5]thiadiazepin-6-yl)methyl)-4-methylphenyl)-3-(3-(difluoromethyl)-8-methyl-[1,2,4]triazolo[4,3-a]pyridin-7-yl)propanoic Acid], 13.6 nM. `Cc1cnc2c(c1)S(=O)(=O)N(Cc1cc([C@H](c3ccn4c(C(F)(F)F)nnc4c3C)[C@H](C)C(=O)O)ccc1C)CC1(CC1)O2` (relative stereo) [Example 545, (2*S,3*R)-2-Methyl-3-(4-methyl-3-((8′-methyl-1′,1′-dioxidospiro[cyclopropane-1,4′-pyrido[2,3-b][1,4,5]oxathiazepin]-2′(3′H)-yl)methyl)phenyl)-3-(8-methyl-3-(trifluoromethyl)-[1,2,4]triazolo[4,3-a]pyridin-7-yl)propanoic Acid]: the EC50 (Homo sapiens, HEK293, 24 h) stood at 49.8 nM. For the compound `Cc1cnc2c(c1)S(=O)(=O)N(Cc1cc(C(c3ccn4c(C(F)(F)F)nnc4c3C)C(C)(C)C(=O)O)ccc1C)CC1(CCOCC1)O2` (stereo not shown) [Example 406, 2,2-Dimethyl-3-(4-methyl-3-((8′-methyl-1′,1′-dioxido-2,3,5,6-tetrahydrospiro[pyran-4,4′-pyrido[2,3-b][1,4,5]oxathiazepin]-2′(3′H)-yl)methyl)phenyl)-3-(8-methyl-3-(trifluoromethyl)-[1,2,4]triazolo[4,3-a]pyridin-7-yl)propanoic Acid], it took 3.6 nM to reach a half-maximal effect (24 hours) (EC50). For the compound `CCn1nnc2c(C)c([C@@H](CC(=O)O)c3ccc(C)c(CN4C[C@H]5COCCN5c5ncccc5S4(=O)=O)c3)ccc21` (single isomer, unassigned) [Example 136, (*S)-3-(3-(((*S)-5,5-Dioxido-7a,8,10,11-tetrahydro-[1,4]oxazino[3,4-d]pyrido[2,3-f][1,2,5]thiadiazepin-6(7H)-yl)methyl)-4-methylphenyl)-3-(1-ethyl-4-methyl-1H-benzo[d][1,2,3]triazol-5-yl)propanoic Acid], a half-maximal response (Homo sapiens, HEK293, 24 h) (EC50) required 8.3 nM.

Under “Homo sapiens, HEK293, 24 h”, `CCn1nnc2c(C)c(C(CC(=O)O)c3ccc(C)c(CN4C[C@@H]5CCCCN5c5ncccc5S4(=O)=O)c3)ccc21` (mixture of isomers) [Example 141, (R/S)-3-(3-(((*S)-5,5-Dioxido-7,7a,8,9,10,11-hexahydro-6H-dipyrido[2,1-d:2′,3′-f][1,2,5]thiadiazepin-6-yl)methyl)-4-methylphenyl)-3-(1-ethyl-4-methyl-1H-benzo[d][1,2,3]triazol-5-yl)propanoic Acid] came in with an EC50 of 3.9 nM. Still for that read-out and setting: as for `Cc1cc2cc([C@H](c3ccc(C)c(CN4CC5(CCOCC5)Oc5nc(OCCN6CCCC6)c(C)cc5S4(=O)=O)c3)C(C)(C)C(=O)O)n(C)c2nn1` (single isomer, unassigned) [Example 347, (*R)-3-(3,7-Dimethyl-7H-pyrrolo[2,3-c]pyridazine-6-yl)-2,2-dimethyl-3-(4-methyl-3-((8′-methyl-1′,1′-dioxido-7′-(2-(pyrrolidine-1-yl)-ethoxy)2,3,5,6-tetrahydrospiro[pyran-4,4′-pyrido[2,3-b][1,4,5]oxathiazepin]-2′,(3′H)-yl)methyl)phenyl)propanoic Acid], the figure is 3580 nM; as for `Cc1ccc([C@H](CC(=O)O)c2ccn3c(C(F)(F)F)nnc3c2C)cc1CN1CC2(CC2)Oc2ccc(F)cc2S1(=O)=O` (single isomer, unassigned) [Example 98, (*S)-3-(3-((8-Fluoro-1,1-dioxidospiro[benzo[b][1,4,5]oxathiazepin]-4,1′-cyclopropan]-2(3H)-yl)methyl)-4-methylphenyl)-3-(8-methyl-3-(trifluoromethyl)-[1,2,4]triazolo[4,3-a]pyridin-7-yl)propanoic Acid], 16 nM; as for `Cc1ccc([C@H](CC(=O)O)c2ccn3c(C(F)(F)F)nnc3c2C)cc1CN1C[C@H]2CCCCN2c2nc(C#N)ccc2S1(=O)=O` (relative stereo) [Example 204, (*S)-3-(3-(((*R)-2-Cyano-5,5-dioxido-7,7a,8,9,10,11-hexahydro-6H-dipyrido[2,1-d:2′,3′-f][1,2,5]thiadiazepin-6-yl)methyl)-4-methylphenyl)-3-(8-methyl-3-(trifluoromethyl)-[1,2,4]triazolo[4,3-a]pyridin-7-yl)propanoic Acid], 5.9 nM.

`CCn1nnc2c(C)c([C@H](CC(=O)O)c3ccc(C)c(CN4C[C@@H]5COCCN5c5ncccc5S4(=O)=O)c3)ccc21` (single isomer, unassigned) [Example 140, (*R)-3-(3-(((*R)-5,5-Dioxido-7a,8,10,11-tetrahydro-[1,4]oxazino[3,4-d]pyrido[2,3-f][1,2,5]thiadiazepin-6(7H)-yl)methyl)-4-methylphenyl)-3-(1-ethyl-4-methyl-1H-benzo[d][1,2,3]triazol-5-yl)propanoic Acid] registered an EC50 (Homo sapiens, HEK293, 24 h) of 19 nM. The same measure, in the same setting: as for `Cc1cnc2c(c1)S(=O)(=O)N(Cc1cc(C(c3ccn4c(C(F)F)nnc4c3C)C(C)(C)C(=O)O)ccc1C)CC1(CC1)O2` (racemic) [Example 559, (R/S)-3-(3-(Difluoromethyl)-8-methyl-[1,2,4]triazolo[4,3-a]pyridin-7-yl)-2,2-dimethyl-3-(4-methyl-3-((8′-methyl-1′,1′-dioxidospiro[cyclopropane-1,4′-pyrido[2,3-b][1,4,5]oxathiazepin]-2′(3′H)-yl)methyl)phenyl)propanoic Acid], the figure is 4.69 nM; as for `CCn1nnc2c(C)c(C(CC(=O)O)c3ccc(C)c(CN4C[C@@H]5CCCN5c5ccccc5S4(=O)=O)c3)ccc21` (mixture of isomers) [Example 147, (R/S)-3-(3-(((S)-5,5-Dioxido-7a,8,9,10-tetrahydrobenzo[f]pyrrolo[2,1-d][1,2,5]thiadiazepin-6(7H)-yl)methyl)-4-methylphenyl)-3-(1-ethyl-4-methyl-1H-benzo[d][1,2,3]triazol-5-yl)propanoic Acid], 19 nM.
